We go through 12 compounds from patent US10022453B2 (BAYER PHARMA AKTIENGESELLSCHAFT, priority 2013, dated 2018).

The nature of series [1]: Cell permeability, flux assay using Caco-2 cells. The note with it: human, Caco-2. Here is the method: C-3 In Vitro Tests for Determining Cell Permeability
The cell permeability of a substance can be investigated by means of in vitro testing in a flux assay using Caco-2 cells [M. D. Troutman and D. R. Thakker, Pharm. […] For this purpose, the cells were cultured for 15-16 days on 24-well filter plates. For the determination of permeation, the respective working example was applied in a HEPES buffer to the cells either apically (A) or basally (B) and incubated for 2 hours. After 0 hours and after 2 hours, samples were taken from the cis and trans compartments. The samples were separated by HPLC (Agilent 1200, Böblingen, Germany) using reverse phase columns.
Of critical importance for toxophores which are released intracellularly is the permeability from B to A [Papp(B-A)] and the ratio of Papp(B-A) to Papp(A-B) (efflux ratio): the lower this permeability, the slower the active and passive transport processes of the substance through the monolayer of Caco-2 cells.
On the technique in general: Caco-2 cells form a polarised layer with tight junctions and transporters.

Series [2] concerns the target T1, human kinesin spindle protein KSP/Eg5 (Homo sapiens, UniProt P52732).
T1 construct: The motor domain of the human kinesin spindle protein KSP/Eg5; purchased tebu-bio/Cytoskeleton Inc 027EG01-XL
T1 sequence (P52732 18-359 limits assumed): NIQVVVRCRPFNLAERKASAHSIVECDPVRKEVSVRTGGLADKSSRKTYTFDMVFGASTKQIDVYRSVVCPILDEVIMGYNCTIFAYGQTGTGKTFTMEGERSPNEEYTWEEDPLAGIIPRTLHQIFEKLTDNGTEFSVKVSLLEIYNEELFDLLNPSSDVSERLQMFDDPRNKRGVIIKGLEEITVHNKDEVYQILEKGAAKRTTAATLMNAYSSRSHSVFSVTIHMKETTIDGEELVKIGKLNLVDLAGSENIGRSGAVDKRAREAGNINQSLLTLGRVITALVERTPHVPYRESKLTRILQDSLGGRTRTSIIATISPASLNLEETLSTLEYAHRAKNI
As to the kind of experiment: Inhibition of the kinesin spindle protein KSP/Eg5 (ATPase, malachite green). Conditions: 10 nM KSP motor domain, 500 μM ATP, 2 h RT. It counts as biochemical. Here is the method: C-1b Determination of the Inhibition of the Kinesin Spindle Protein KSP/Eg5 by Selected Examples
The motor domain of the human kinesin spindle protein KSP/Eg5 (from tebu-bio/Cytoskeleton Inc, No. 027EG01-XL) is incubated at a concentration of 10 nM with 50 μg/ml taxol- (from Sigma No. T7191-5MG) stabilized microtubuli (bovine or porcine, from tebu-bio/Cytoskeleton Inc) for 5 min at RT in 15 mM PIPES, pH 6.8 (5 mM MgCl2 and 10 mM DTT, from Sigma). The freshly prepared mixture is aliquoted into a 384-well MTP. The inhibitors to be examined at concentrations of 1.0×10^−6 M to 1.0×10^−13 and ATP (final concentration 500 μM, from Sigma) are then added. Incubation is at RT for 2 h. ATPase activity is detected by detecting the inorganic phosphate formed using malachite green (from Biomol). […] The individual data of the dose-activity curve are eight-fold determinations. The IC50 values are means of three independent experiments.

pIC50: −log10 of the molar value.

On to `CC(C)[C@H](NC(=O)CCNC(=O)[C@@H](N)CCN(C(=O)CO)[C@@H](c1nc(-c2cc(F)ccc2F)cn1Cc1ccccc1)C(C)(C)C)C(=O)N[C@@H](CCCNC(N)=O)C(=O)O.O=C(O)C(F)(F)F` [Example 72, N-{(2S)-2-Amino-4-[{(1R)-1-[1-benzyl-4-(2,5-difluorophenyl)-1H-imidazol-2-yl]-2,2-dimethylpropyl}(glycoloyl)amino]butanoyl}-beta-alanyl-L-valyl-N^5-carbamoyl-L-ornithine/trifluoroacetic acid (1:1)], for which, in series [1], the Papp B→A (in general, how fast a substance crosses the layer from the basolateral side) at 2 h came out at 0.25 ×10⁻⁶ cm/s and the efflux ratio (as a rule, a quotient of directional permeabilities that is used to spot active efflux) at 2 h amounted to 2.1. Moreover, the pIC50 (usually −log10 of the IC50, conventionally taken in molar units) in series [2] was 8.31.

With `C[C@H](NC(=O)CCNC(=O)[C@@H](N)CCN(C(=O)CO)[C@@H](c1nc(-c2cc(F)ccc2F)cn1Cc1ccccc1)C(C)(C)C)C(=O)N[C@@H](CCCNC(N)=O)C(=O)Nc1ccc(CC(=O)NCCN2C(=O)CC(SC[C@H](N)C(=O)O)C2=O)cc1` (stereo partly drawn) [Example 70, N-{(2S)-2-Amino-4-[{(1R)-1-[1-benzyl-4-(2,5-difluorophenyl)-1H-imidazol-2-yl]-2,2-dimethylpropyl}(glycoloyl)amino]butanoyl}-beta-alanyl-L-alanyl-N-[4-(2-{[2-(3-{[(2R)-2-amino-2-carboxyethyl]sulphanyl}-2,5-dioxopyrrolidin-1-yl)ethyl]amino}-2-oxoethyl)phenyl]-N^5-carbamoyl-L-ornithinamide], in series [1], the Papp B→A at 2 h is 0.16 ×10⁻⁶ cm/s and the efflux ratio at 2 h was 1.9. Moreover, the pIC50 in series [2] was 8.50.

Regarding `CC(C)(C)[C@H](c1nc(-c2cc(F)ccc2F)cn1Cc1ccccc1)N(CC[C@H](N)C(=O)NCCC(=O)Nc1ccc(N2C(=O)CC(SC[C@H](N)C(=O)O)C2=O)cc1)C(=O)CO` (stereo partly drawn) [Example 66, S-(1-{4-[(N-{(2S)-2-Amino-4-[{(1R)-1-[1-benzyl-4-(2,5-difluorophenyl)-1H-imidazol-2-yl]-2,2-dimethylpropyl}(glycoloyl)amino]butanoyl}-beta-alanyl)amino]phenyl}-2,5-dioxopyrrolidin-3-yl)-L-cysteine], in series [1], the Papp B→A at 2 h turned out to be 2.7 ×10⁻⁶ cm/s and the efflux ratio at 2 h came to 12. In series [2], this compound had a pIC50 of 8.09.

As for `CC(C)(C)[C@H](c1nc(-c2cc(F)ccc2F)cn1Cc1ccccc1)N(CC[C@H](N)C(=O)NCCC(=O)N[C@@H](Cc1ccc(N)cc1)C(=O)O)C(=O)CO.O=C(O)C(F)(F)F.O=C(O)C(F)(F)F` [Example 74, N-{(2S)-2-Amino-4-[{(1R)-1-[1-benzyl-4-(2,5-difluorophenyl)-1H-imidazol-2-yl]-2,2-dimethylpropyl}(glycoloyl)amino]butanoyl}-beta-alanyl-4-amino-L-phenylalanine/trifluoroacetic acid (1:2)], in series [1], the Papp B→A at 2 h worked out at 2.6 ×10⁻⁶ cm/s and the efflux ratio at 2 h was determined as 15. Also, the pIC50 in series [2] was 8.21.

As to `CC(C)(C)[C@H](c1nc(-c2cc(F)ccc2F)cn1Cc1ccccc1)N(CC[C@H](N)C(=O)NCCOCCOCCOCCC(=O)O)C(=O)CO.O=C(O)C(F)(F)F` [Example 71, (15S,19R)-15-Amino-19-[1-benzyl-4-(2,5-difluorophenyl)-1H-imidazol-2-yl]-18-glycoloyl-20,20-dimethyl-14-oxo-4,7,10-trioxa-13,18-diazahenicosan-1-oic acid/trifluoroacetic acid (1:1)], in series [1], the Papp B→A at 2 h is 28 ×10⁻⁶ cm/s and the efflux ratio at 2 h turned out to be 280. Moreover, the pIC50 in series [2] is 8.91.

In the case of `CC(C)[C@H](NC(=O)CCNC(=O)[C@@H](N)CCN(C(=O)CO)[C@@H](c1nc(-c2cc(F)ccc2F)cn1Cc1ccccc1)C(C)(C)C)C(=O)N[C@@H](CCCNC(N)=O)C(=O)Nc1ccc(CC(=O)NCCN2C(=O)CC(SC[C@H](N)C(=O)O)C2=O)cc1` (stereo partly drawn) [Example 69, N-{(2S)-2-Amino-4-[{(1R)-1-[1-benzyl-4-(2,5-difluorophenyl)-1H-imidazol-2-yl]-2,2-dimethylpropyl}(glycoloyl)amino]butanoyl}-beta-alanyl-L-valyl-N-[4-(2-{[2-(3-{[(2R)-2-amino-2-carboxyethyl]sulphanyl}-2,5-dioxopyrrolidin-1-yl)ethyl]amino}-2-oxoethyl)phenyl]-N^5-carbamoyl-L-ornithinamide], in series [1], the Papp B→A at 2 h stood at 0.15 ×10⁻⁶ cm/s and the efflux ratio at 2 h amounted to 2. Besides, the pIC50 in series [2] is 8.32.

Consider `CC(C)(C)[C@H](c1nc(-c2cc(F)ccc2F)cn1Cc1ccccc1)N(CC[C@H](N)C(=O)NCCNC(=O)CN1C(=O)CC(SC[C@H](N)C(=O)O)C1=O)C(=O)CO.O=C(O)C(F)(F)F` (stereo partly drawn) [Example 64, S-[1-(2-{[2-({(2S)-2-Amino-4-[{(1R)-1-[1-benzyl-4-(2,5-difluorophenyl)-1H-imidazol-2-yl]-2,2-dimethylpropyl}(glycoloyl)amino]butanoyl}amino)ethyl]amino}-2-oxoethyl)-2,5-dioxopyrrolidin-3-yl]-L-cysteine trifluoroacetic acid (1:1)], for which, in series [1], the Papp B→A at 2 h was determined as 1 ×10⁻⁶ cm/s and the efflux ratio at 2 h stood at 2.8. For the same compound, the pIC50 in series [2] is 8.51.

Consider `CC(C)(C)[C@H](c1nc(-c2cc(F)ccc2F)cn1Cc1ccccc1)N(CC[C@H](N)C(=O)O)C(=O)CO.O=C(O)C(F)(F)F` [Example 76, (2S)-2-Amino-4-[{(1R)-1-[1-benzyl-4-(2,5-difluorophenyl)-1H-imidazol-2-yl]-2,2-dimethylpropyl}(glycoloyl)amino]butanoic acid/trifluoroacetic acid (1:1)], for which, in series [1], the Papp B→A at 2 h was 5.5 ×10⁻⁶ cm/s and the efflux ratio at 2 h was 27. For the same compound, the pIC50 in series [2] is 8.63.

As for `CC(C)[C@H](NC(=O)CCCCCN1C(=O)CC(SC[C@H](N)C(=O)O)C1=O)C(=O)N[C@@H](C)C(=O)N[C@@H](CCCCNC(=O)[C@@H](N)CCN(C(=O)CO)[C@@H](c1nc(-c2cc(F)ccc2F)cn1Cc1ccccc1)C(C)(C)C)C(=O)O.O=C(O)C(F)(F)F` (stereo partly drawn) [Example 63, N-[6-(3-{[(2R)-2-Amino-2-carboxyethyl]sulfanyl}-2,5-dioxopyrrolidin-1-yl)hexanoyl]-L-valyl-L-alanyl-N^6-{(2S)-2-amino-4-[{(1R)-1-[1-benzyl-4-(2,5-difluorophenyl)-1H-imidazol-2-yl]-2,2-dimethylpropyl}(glycoloyl)amino]butanoyl}-L-lysine trifluoroacetic acid (1:1)], in series [1], the Papp B→A at 2 h was found to be 0.098 ×10⁻⁶ cm/s and the efflux ratio at 2 h is 1.1. Also, in series [2], the pIC50 was 8.54.

On to `C[C@H](NC(=O)CCNC(=O)[C@@H](N)CCN(C(=O)CO)[C@@H](c1nc(-c2cc(F)ccc2F)cn1Cc1ccccc1)C(C)(C)C)C(=O)N[C@@H](CCCNC(N)=O)C(=O)Nc1ccc(NC(=O)CN2C(=O)CC(SC[C@H](N)C(=O)O)C2=O)cc1` (stereo partly drawn) [Example 65, N-{(2S)-2-Amino-4-[{(1R)-1-[1-benzyl-4-(2,5-difluorophenyl)-1H-imidazol-2-yl]-2,2-dimethylpropyl}(glycoloyl)amino]butanoyl}-beta-alanyl-L-alanyl-N-(4-{[(3-{[(2R)-2-amino-2-carboxyethyl]sulphanyl}-2,5-dioxopyrrolidin-1-yl)acetyl]amino}phenyl)-N^5-carbamoyl-L-ornithinamide], for which, in series [1], the Papp B→A at 2 h was 0.12 ×10⁻⁶ cm/s and the efflux ratio at 2 h worked out at 2.3. In series [2], this compound gave a pIC50 of 8.69.

`CC(C)(C)[C@H](c1nc(-c2cc(F)ccc2F)cn1Cc1ccccc1)N(CC[C@H](N)CN)C(=O)CO.O=C(O)C(F)(F)F` [Example 78, Trifluoroacetic acid/N-{(1R)-1-[1-benzyl-4-(2,5-difluorophenyl)-1H-imidazol-2-yl]-2,2-dimethylpropyl}-N-[(3S)-3,4-diaminobutyl]-2-hydroxyacetamide (1:1)]: in series [1], the apparent permeability from basolateral to apical (Papp B→A) at 2 h was found to be 14 ×10⁻⁶ cm/s and the efflux ratio at 2 h is 44. In series [2], this compound showed a pIC50 of 8.31.

In the case of `C[C@H](NC(=O)CCNC(=O)[C@@H](N)CCN(C(=O)CO)[C@@H](c1nc(-c2cc(F)ccc2F)cn1Cc1ccccc1)C(C)(C)C)C(=O)N[C@@H](CCCNC(N)=O)C(=O)Nc1ccc(N2C(=O)CC(SC[C@H](N)C(=O)O)C2=O)cc1` (stereo partly drawn) [Example 68, N-{(2S)-2-Amino-4-[{(1R)-1-[1-benzyl-4-(2,5-difluorophenyl)-1H-imidazol-2-yl]-2,2-dimethylpropyl}(glycoloyl)amino]butanoyl}-beta-alanyl-L-alanyl-N-[4-(3-{[(2R)-2-amino-2-carboxyethyl]sulphanyl}-2,5-dioxopyrrolidin-1-yl)phenyl]-N^5-carbamoyl-L-ornithinamide], in series [1], the Papp B→A at 2 h was 0.18 ×10⁻⁶ cm/s and the efflux ratio at 2 h was 1.9. Besides, in series [2], the pIC50 was 8.49.
